What all share (parameters): species or system AML cell lines (8); Primary HTS, single concentration about 10 uM, Cell Titer Glo viability; log10 luminescence, per cent inhibition relative to cycloheximide control
Common to all, as to conditions: 72 h, relative to cycloheximide control, log10 luminescence, inhibitor
(Cellular ATP, detected with luciferase, serves as a proxy for viable cell number.)

The subject of assay [1] is MV4-11.
Assay [2] relates to M07e.
Assay [3] relates to CMK.
For assay [4], the system named is CMS.
Assay [5] relates to CHRF288-11.
Assay [6] concerns ML-2.
The test system of assay [7] is U937.
For assay [8], the system named is MOLM-13.

Structures can show the parent of a compound that is named as a salt. Where two headings read alike, the source gives them in different places.

As for `Fc1ccc(Nc2nccc(-c3c(-c4ccc(C(F)(F)F)cc4)nn4ncccc34)n2)cc1F` [SJ000573224-1, U17838/186/3], the MV4-11 %inh in assay [1] is listed as -1.825%. In addition, in assay [2], the M07e %inh is given as -1.97%. Moreover, the CMK %inh in assay [3] amounted to 0.9298%. Besides, in assay [4], the CMS %inh is reported as -1.104%. The CHRF288-11 %inh in assay [5] is -0.9437%. Moreover, in assay [6], the ML-2 %inh was 2.7%. Also, in assay [7], the U937 %inh turned out to be 0.5152%. Also, the MOLM-13 %inh in assay [8] is on record as -1.248%.

`CC(C)(O)Cn1c(=O)c(Oc2ccc(F)cc2F)cc2cnc(NC3CCOCC3)nc21` [SJ000581116-1]: in assay [1], the MV4-11 %inh is 2.584%. In addition, in assay [2], the M07e %inh was 10.58%. Besides, the CMK %inh in assay [3] is reported as 6.636%. In addition, in assay [4], the CMS %inh is listed as -1.939%. Moreover, in assay [5], the CHRF288-11 %inh is recorded as -0.4946%. The ML-2 %inh in assay [6] was determined as 0.2616%. The U937 %inh in assay [7] was 1.398%. Besides, the MOLM-13 %inh in assay [8] was found to be 1.601%.

Regarding `O=C(O[C@H]1CN[C@H](C#Cc2cc3ncnc(Nc4ccc(OCc5cccc(F)c5)c(Cl)c4)c3s2)C1)N1CCOCC1` [SJ000573329-1, U20348/87/4], the MV4-11 %inh in assay [1] is on record as 10.03%. The M07e %inh in assay [2] is -3.855%. Besides, the CMK %inh in assay [3] came to 8.904%. Further, the CMS %inh in assay [4] is listed as 8.758%. Further, the CHRF288-11 %inh in assay [5] is on record as 79.21%. The ML-2 %inh in assay [6] came out at 22.51%. Moreover, in assay [7], the U937 %inh amounted to 6.089%. Besides, the MOLM-13 %inh in assay [8] turned out to be 4.591%.

On to `CN(C)C(=O)O[C@H]1CN[C@H](C#Cc2cc3ncnc(Nc4ccc(OCc5cccc(F)c5)c(Cl)c4)c3s2)C1` [SJ000573053-1, U20298/139/1 | U20747/39/1], for which the MV4-11 %inh in assay [1] turned out to be 4.747%. Moreover, the M07e %inh in assay [2] is reported as 1.476%. Moreover, the CMK %inh in assay [3] is recorded as -4.087%. Moreover, the CMS %inh in assay [4] is reported as 2.516%. In assay [5], the CHRF288-11 %inh was 65.04%. Further, the ML-2 %inh in assay [6] came out at 5.015%. The U937 %inh in assay [7] was -0.4617%. Moreover, the MOLM-13 %inh in assay [8] is -0.949%.

`CCCC[C@@H](C=O)NC(=O)[C@H](CC(C)C)NC(=O)OCc1ccccc1` [SJ000755074-2, CALPEPTIN]: the MV4-11 %inh in assay [1] (MV4-11 %inh, 10 µM) worked out at 8.208%. In assay [2] (M07e %inh, 10 µM), the M07e %inh came to 2.133%. Moreover, the CMK %inh in assay [3] (CMK %inh, 10 µM) is recorded as -0.8705%. Further, the CMS %inh in assay [4] (CMS %inh, 10 µM) is on record as 2.144%. Also, the CHRF288-11 %inh in assay [5] (CHRF288-11 %inh, 10 µM) came to 27.98%. Moreover, the ML-2 %inh in assay [6] (ML-2 %inh, 10 µM) is on record as 0.3376%. The U937 %inh in assay [7] (U937 %inh, 10 µM) is 3.349%. For the same molecule, the MOLM-13 %inh in assay [8] (MOLM-13 %inh, 10 µM) turned out to be 5.31%.

As to `COc1cc(N2CCN(C(C)C)CC2)ccc1Nc1nc(Nc2ccc(F)cc2C(N)=O)c2cc[nH]c2n1` [SJ000573298-1, U22490/47/4], in assay [1], the MV4-11 %inh is recorded as 68.67%. Moreover, in assay [2], the M07e %inh is 44.9%. Moreover, the CMK %inh in assay [3] was 61.83%. In addition, the CMS %inh in assay [4] is given as 47.53%. For the same molecule, the CHRF288-11 %inh in assay [5] came to 127%. Moreover, the ML-2 %inh in assay [6] is given as 34.55%. The U937 %inh in assay [7] worked out at 43.61%. Besides, in assay [8], the MOLM-13 %inh is 113.4%.

As to `OCc1ccc(-c2nc(-c3ccc4c(c3)OCO4)c(-c3ccccn3)[nH]2)cc1` [SJ000573254-1, FH98924-116A1], the MV4-11 %inh in assay [1] is -0.8385%. Besides, the M07e %inh in assay [2] stood at 0.7981%. Further, the CMK %inh in assay [3] was -1.373%. Moreover, the CMS %inh in assay [4] is recorded as 0.5352%. The CHRF288-11 %inh in assay [5] is reported as -3.015%. The ML-2 %inh in assay [6] worked out at 2.365%. For the same molecule, the U937 %inh in assay [7] is reported as -3.528%. For the same molecule, the MOLM-13 %inh in assay [8] was found to be 0.3005%.

Take `COC(=O)c1ccc2c(c1)C(=Cc1cc(Br)c(O)c(Br)c1)C(=O)N2` [SJ000573242-1, U8097/138/1]: the MV4-11 %inh in assay [1] was 16.92%. The M07e %inh in assay [2] is reported as 3.423%. In addition, the CMK %inh in assay [3] turned out to be 10.16%. For the same molecule, in assay [4], the CMS %inh is reported as 10.7%. The CHRF288-11 %inh in assay [5] worked out at 6.512%. Also, in assay [6], the ML-2 %inh stood at 8.878%. In addition, the U937 %inh in assay [7] is 4.474%. Besides, the MOLM-13 %inh in assay [8] is listed as 7.69%.

Turning to `O=c1[nH]c2nc(NC3CCOCC3)ncc2cc1Oc1ccc(F)cc1F` [SJ000581091-1], the MV4-11 %inh in assay [1] is listed as 0.8036%. Moreover, the M07e %inh in assay [2] stood at 7.401%. Further, in assay [3], the CMK %inh is listed as -0.7252%. Moreover, the CMS %inh in assay [4] came to 4.57%. In assay [5], the CHRF288-11 %inh came out at 2.671%. Further, in assay [6], the ML-2 %inh is -1.12%. Further, the U937 %inh in assay [7] is listed as 1.694%. The MOLM-13 %inh in assay [8] is listed as -2.415%.

`CCC(=O)O[C@]1(C(=O)CCl)[C@@H](C)C[C@H]2[C@@H]3CCC4=CC(=O)C=C[C@]4(C)[C@@]3(F)[C@@H](O)C[C@@]21C` [SJ000286006-4, CLOBETASOL PROPIONATE]: the MV4-11 %inh in assay [1] amounted to 4.125%. For the same molecule, the M07e %inh in assay [2] is recorded as 3.893%. For the same molecule, in assay [3], the CMK %inh is 12.78%. For the same molecule, the CMS %inh in assay [4] was 4.642%. For the same molecule, in assay [5], the CHRF288-11 %inh was 12.55%. Besides, the ML-2 %inh in assay [6] is recorded as 4.272%. In addition, the U937 %inh in assay [7] turned out to be 16.72%. Moreover, the MOLM-13 %inh in assay [8] was 8.361%.

Take `CS(=O)(=O)CCNCc1nc(-c2ccc3ncnc(Nc4ccc(F)c(Cl)c4)c3c2)cs1` [SJ000573208-1, R2677/150/1]: in assay [1], the MV4-11 %inh is reported as 1.268%. Moreover, in assay [2], the M07e %inh is reported as 1.192%. Further, the CMK %inh in assay [3] was found to be 3.345%. The CMS %inh in assay [4] was found to be 3.363%. The CHRF288-11 %inh in assay [5] was determined as 0.6669%. The ML-2 %inh in assay [6] is recorded as 0.9399%. The U937 %inh in assay [7] was -0.3412%. In addition, the MOLM-13 %inh in assay [8] is listed as 1.729%.

As to `NC[C@H](CC(=O)O)c1ccc(Cl)cc1` (racemic) [SJ000285686-7, BACLOFEN | (R,S)-BACLOFEN | (±)-BACLOFEN | LIORESAL], in assay [1], the MV4-11 %inh is reported as 2.346%. In addition, the M07e %inh in assay [2] is recorded as -0.3712%. In assay [3], the CMK %inh was 21.33%. Moreover, the CMS %inh in assay [4] stood at 7.511%. Further, the CHRF288-11 %inh in assay [5] is listed as -1.195%. Besides, the ML-2 %inh in assay [6] turned out to be 2.059%. In addition, the U937 %inh in assay [7] was found to be 5.766%. For the same molecule, the MOLM-13 %inh in assay [8] came out at 8.873%.

In the case of `CCn1c(-c2nonc2N)nc2c(C#CC(C)(C)O)nc(OC[C@@H](N)c3ccccc3)cc21` [SJ000573312-1, LS204454-145A1 | LS204454-146A1], in assay [1], the MV4-11 %inh was 7.841%. Besides, the M07e %inh in assay [2] came to 29.99%. The CMK %inh in assay [3] is recorded as 11.49%. Also, in assay [4], the CMS %inh was found to be 24.21%. Also, the CHRF288-11 %inh in assay [5] is given as 122.3%. The ML-2 %inh in assay [6] is 7.922%. For the same molecule, the U937 %inh in assay [7] came out at 37.57%. The MOLM-13 %inh in assay [8] was determined as 19.15%.

Consider `Cc1cccc(C)c1NC(=O)C(C)N` (centres unmarked) [SJ000287515-4, TOCAINIDE HYDROCHLORIDE], for which, in assay [1], the MV4-11 %inh is -0.903%. Moreover, in assay [2], the M07e %inh is 1.522%. The CMK %inh in assay [3] was -3.02%. Moreover, the CMS %inh in assay [4] is reported as -0.9728%. Also, the CHRF288-11 %inh in assay [5] was -1.466%. Also, the ML-2 %inh in assay [6] worked out at 2.731%. For the same molecule, the U937 %inh in assay [7] was -0.5289%. Further, the MOLM-13 %inh in assay [8] was found to be 2.63%.

Consider `Cc1cccc(Nc2cc(Cl)nc(SCC(=O)O)n2)c1C` [SJ000546497-1, WY 14643 | WY-14643 | WY-14643 (PIRINIXIC ACID)], for which the MV4-11 %inh in assay [1] worked out at 2.638%. Further, the M07e %inh in assay [2] worked out at 2.884%. For the same molecule, the CMK %inh in assay [3] is -0.2043%. Also, the CMS %inh in assay [4] was -0.6556%. Moreover, the CHRF288-11 %inh in assay [5] is 0.5396%. For the same molecule, in assay [6], the ML-2 %inh is on record as 1.805%. Also, the U937 %inh in assay [7] is listed as 0.764%. Further, the MOLM-13 %inh in assay [8] came to 0.03488%.

For `Cn1cc(C2=C(c3ccccc3[N+](=O)[O-])C(=O)NC2=O)c2ccccc21` [SJ000581119-1], in assay [1], the MV4-11 %inh came to 44.46%. In assay [2], the M07e %inh turned out to be 28.37%. Moreover, the CMK %inh in assay [3] stood at 89.69%. The CMS %inh in assay [4] came out at 101.9%. The CHRF288-11 %inh in assay [5] was 24.65%. Also, in assay [6], the ML-2 %inh is recorded as 6.35%. The U937 %inh in assay [7] was found to be 6.728%. Moreover, the MOLM-13 %inh in assay [8] is recorded as 15.35%.
